What was measured:
[1] = target: T1, human GluR1/2 receptors (Homo sapiens, UniProt P42261+P42262); assay: Patch-clamp of glutamate-induced membrane currents in HEK 293 cells expressing GluR1/2; assay type: cell-based; details: recombinant human GluR1/2, 1 mM glutamate for 1 s at holding potential −80 mV
T1 construct: expressed in transfected cells; host or cells: HEK 293
Method: Ionotropic glutamate receptors of the AMPA subtype are also essential for the excitatory neurotransmission. […] HEK 293 cells which expressed functionally recombinant human GluR1/2 receptors were electrophysiologically investigated by the Patch-Clamp method ([…]). The administration of 1 mM glutamate (for 1 s at a holding potential of −80 mV) induced membrane currents which were inhibited by the joint administration of ambroxol.

[2] = test system: centrally expressed neuronal sodium channels; details: neuronal sodium channel subtypes, Weiser and Wilson, Mol. Pharmacol. 62, 433-438, 2002, read-out: half-maximum inhibition of centrally expressed channels; cited from earlier work

T1 sequence (P42261 19-906): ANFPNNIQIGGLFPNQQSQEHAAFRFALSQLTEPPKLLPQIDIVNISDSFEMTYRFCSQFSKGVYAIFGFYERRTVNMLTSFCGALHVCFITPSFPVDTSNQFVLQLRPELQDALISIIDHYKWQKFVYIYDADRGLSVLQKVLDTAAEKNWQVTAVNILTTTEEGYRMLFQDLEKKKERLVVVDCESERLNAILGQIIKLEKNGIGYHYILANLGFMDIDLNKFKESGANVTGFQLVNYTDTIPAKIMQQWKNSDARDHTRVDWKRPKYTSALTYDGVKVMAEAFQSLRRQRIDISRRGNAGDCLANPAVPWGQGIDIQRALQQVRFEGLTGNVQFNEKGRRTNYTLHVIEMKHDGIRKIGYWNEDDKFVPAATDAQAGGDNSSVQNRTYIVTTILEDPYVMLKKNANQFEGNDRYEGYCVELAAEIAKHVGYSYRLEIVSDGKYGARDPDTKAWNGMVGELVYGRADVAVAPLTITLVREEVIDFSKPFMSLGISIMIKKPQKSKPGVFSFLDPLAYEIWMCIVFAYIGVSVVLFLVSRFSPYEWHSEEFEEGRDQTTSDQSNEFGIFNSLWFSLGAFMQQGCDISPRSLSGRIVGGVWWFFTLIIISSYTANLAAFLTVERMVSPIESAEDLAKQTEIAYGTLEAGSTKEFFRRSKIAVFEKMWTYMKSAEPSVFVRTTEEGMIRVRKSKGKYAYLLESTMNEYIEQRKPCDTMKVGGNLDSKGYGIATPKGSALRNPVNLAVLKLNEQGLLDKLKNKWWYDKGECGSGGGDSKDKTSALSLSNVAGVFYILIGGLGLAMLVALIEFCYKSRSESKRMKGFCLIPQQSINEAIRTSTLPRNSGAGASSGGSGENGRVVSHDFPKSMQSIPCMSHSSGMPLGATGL
T1 sequence (P42262 22-883 limits assumed): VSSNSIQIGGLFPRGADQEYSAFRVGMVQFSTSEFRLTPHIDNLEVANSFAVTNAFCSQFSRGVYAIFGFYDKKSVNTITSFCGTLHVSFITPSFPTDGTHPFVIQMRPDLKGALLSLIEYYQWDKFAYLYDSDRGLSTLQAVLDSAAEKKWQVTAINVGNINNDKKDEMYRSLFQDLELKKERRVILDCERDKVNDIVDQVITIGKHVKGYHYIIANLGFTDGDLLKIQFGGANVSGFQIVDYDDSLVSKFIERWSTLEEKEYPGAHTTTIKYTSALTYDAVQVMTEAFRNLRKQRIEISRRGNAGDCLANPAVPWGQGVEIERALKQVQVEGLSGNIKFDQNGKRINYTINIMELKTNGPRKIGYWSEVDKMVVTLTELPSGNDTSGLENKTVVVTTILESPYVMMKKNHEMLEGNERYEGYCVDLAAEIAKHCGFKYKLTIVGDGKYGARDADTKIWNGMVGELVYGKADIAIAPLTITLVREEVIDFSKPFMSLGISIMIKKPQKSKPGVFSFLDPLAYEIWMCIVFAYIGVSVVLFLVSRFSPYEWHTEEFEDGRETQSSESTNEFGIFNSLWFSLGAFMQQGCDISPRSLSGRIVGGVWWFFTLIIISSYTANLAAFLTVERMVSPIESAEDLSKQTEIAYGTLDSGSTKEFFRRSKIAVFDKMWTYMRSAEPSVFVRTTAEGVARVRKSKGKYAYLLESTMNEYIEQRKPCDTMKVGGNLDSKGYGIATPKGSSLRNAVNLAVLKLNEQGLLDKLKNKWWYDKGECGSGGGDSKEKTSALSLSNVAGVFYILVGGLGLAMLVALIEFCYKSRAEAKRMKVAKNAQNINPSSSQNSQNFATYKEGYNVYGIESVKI

Nc1c(Br)cc(Br)cc1CN[C@H]1CC[C@H](O)CC1 [ambroxol, trans-4-(2-amino-3,5-dibromobenzylamino)cyclohexanol]
concentrations inhibiting glutamate-induced membrane currents [1]: 30 to 1000 µM | IC50 [2]: 111 µM
